These results are taken from ChEMBL document CHEMBL1781926, “Synthesis of 1-naphtylpiperazine derivatives as serotoninergic ligands and their evaluation as antiproliferative agents” (Eur J Med Chem, 2011).

Test [1] has as its system PC-3. The test can be described thus: Inhibition of serotonin-induced MAPK phosphorylation in human PC3 cells at 2 uM after 48 hrs by Western blotting. Type of test: cell-based.
The subject of test [2] is PC-3. The test is described as follows: Cell cycle arrest in human PC3 cells assessed as accumulation at G1 phase at 2 uM after 24 hrs using propidium iodide staining by flow cytometry (reference value: 46.97 %). Type of test: functional. For orientation: Flow cytometry measures light scatter and fluorescence of single cells or particles in a stream.
Test [3] has as its system PC-3. The test can be described thus: Cell cycle arrest in human PC3 cells assessed as accumulation at G1 phase at 2 uM after 72 hrs using propidium iodide staining by flow cytometry (reference value: 42.19 %). Type of test: functional.
The test system of test [4] is PC-3. The test is described as follows: Cell cycle arrest in human PC3 cells assessed as accumulation at G2 phase at 2 uM after 48 hrs using propidium iodide staining by flow cytometry (reference value: 13.36 %). Type of test: functional.
Test [5] concerns PC-3. The test is described as follows: Induction of apoptosis human PC3 cells assessed as externalization of phosphatidylserine on the outer layer of plasma membrane at 1 uM after 24 to 48 hrs using Annexin-V-FITC staining by flow cytometry. Type of test: functional, cell-based.
For test [6], the system named is PC-3. The test is described as follows: Induction of apoptosis in human PC3 cells at 2 uM after 48 hrs using propidium iodide staining by flow cytometry (reference value: 0.84 %). Type of test: functional.
The subject of test [7] is PC-3. The test can be described thus: Cell cycle arrest in human PC3 cells assessed as accumulation at S phase at 2 uM after 48 hrs using propidium iodide staining by flow cytometry (reference value: 38.16 %). Type of test: functional.
Test [8] concerns PC-3. The test can be described thus: Cell cycle arrest in human PC3 cells assessed as accumulation at G2 phase at 2 uM after 24 hrs using propidium iodide staining by flow cytometry (reference value: 18.19 %). Type of test: functional.
Test [9] concerns PC-3. The test can be described thus: Cell cycle arrest in human PC3 cells assessed as accumulation at G1 phase at 2 uM after 48 hrs using propidium iodide staining by flow cytometry (reference value: 54.14 %). Type of test: functional.
For test [10], the target named is RAC-alpha serine/threonine-protein kinase (Homo sapiens) (UniProt P31749). The test can be described thus: Inhibition of serotonin-induced AKT phosphorylation in human PC3 cells at 2 uM after 48 hrs by Western blotting. The conditions noted are these: PC-3. In kind it is cell-based. For orientation: In western blotting, separated proteins are transferred to a membrane and probed.
Chain of RAC-alpha serine/threonine-protein kinase (Homo sapiens) (P31749 whole entry): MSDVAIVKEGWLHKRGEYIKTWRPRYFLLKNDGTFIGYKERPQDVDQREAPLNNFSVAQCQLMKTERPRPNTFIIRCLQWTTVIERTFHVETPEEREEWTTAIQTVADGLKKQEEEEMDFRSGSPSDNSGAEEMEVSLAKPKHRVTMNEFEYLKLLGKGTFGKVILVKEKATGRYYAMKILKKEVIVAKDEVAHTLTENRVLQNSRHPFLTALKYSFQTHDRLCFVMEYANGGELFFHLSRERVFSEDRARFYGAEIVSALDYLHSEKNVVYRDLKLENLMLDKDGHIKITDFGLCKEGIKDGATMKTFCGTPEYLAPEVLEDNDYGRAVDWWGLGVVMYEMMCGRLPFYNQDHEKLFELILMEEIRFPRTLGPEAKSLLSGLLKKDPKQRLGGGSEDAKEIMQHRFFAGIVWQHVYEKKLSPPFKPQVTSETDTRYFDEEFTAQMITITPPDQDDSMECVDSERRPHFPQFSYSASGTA

In test [11] the test system is PC-3. The test can be described thus: Induction of apoptosis in human PC3 cells at 2 uM after 24 hrs using propidium iodide staining by flow cytometry (reference value: 1.27 %). In kind it is functional.
Test [12] deals with PC-3. The test is described as follows: Cell cycle arrest in human PC3 cells assessed as accumulation at S phase at 2 uM after 72 hrs using propidium iodide staining by flow cytometry (reference value: 37.73 %). Type of test: functional.
Test [13] deals with PC-3. The test can be described thus: Induction of apoptosis in human PC3 cells at 2 uM after 72 hrs using propidium iodide staining by flow cytometry (reference value: 1.79 %). In kind it is functional.
The subject of test [14] is PC-3. The test is described as follows: Cell cycle arrest in human PC3 cells assessed as accumulation at S phase at 2 uM after 24 hrs using propidium iodide staining by flow cytometry (reference value: 34.84 %). Type of test: functional.
Test [15] deals with PC-3. The test can be described thus: Cell cycle arrest in human PC3 cells assessed as accumulation at G2 phase at 2 uM after 72 hrs using propidium iodide staining by flow cytometry (reference value: 20.18 %). In kind it is functional.

Molecules are shown by their SMILES. Active and inactive are the calls of the source. The rule behind the calls is not given here.

For the compound `CC[C@@]1(O)C(=O)OCc2c1cc1n(c2=O)Cc2cc3c(CN(C)C)c(O)ccc3nc2-1` [TOPOTECAN], the inhibition entry in [1] was “inactive”. Also, the Activity in test [2] stood at 37.23%; in test [3], 0%; in test [4] it was 19.07%; in test [6] it was 16.32%; in test [7], 61.76%; in [8], 28.86%. The Activity in test [9] is 19.17%; in test [11] it was 5.43%; in [12], 63.69%; in test [13] it was 8.14%; in test [14] it was 33.91%; in test [15], 36.31%. Besides, the outcome in [5] was Active. Also, the inhibition entry in test [10] is “Active”.
